Measured values reported in ChEMBL document CHEMBL3593232, “Ring-substituted 8-hydroxyquinoline-2-carboxanilides as potential antimycobacterial agents” (Bioorg Med Chem, 2015).
Converted amounts (≈) assume the structure as drawn.

Legend:
[1] = tested on: Mycobacterium avium complex sp.; assay type: functional; details: isolate CIT19/06, 120 h
[2] = Lipophilicity assessed as capacity factor logK of the compound by HPLC method; assay type: physicochemical
THP-1 = assay: Cytotoxicity against human THP1 cells assessed as reduction in cell viability incubated for 24 hrs by WST1 dye based assay; details: THP-1, 24 h
[3] = tested on: Mycobacterium tuberculosis; assay: microbe, parasite or virus in culture; details: H37Ra ATCC 25177, 168 h
Description: Antimycobacterial activity against Mycobacterium tuberculosis H37Ra ATCC 25177 assessed as reduction in bacterial growth incubated at 37 degC for 7 days by alamar blue dye based assay

[4] = tested on: Mycobacterium avium subsp. paratuberculosis; assay type: functional; details: isolate CIT03, 264 h
[5] = tested on: Mycobacterium tuberculosis; assay type: functional, H37Ra ATCC 25177

Structure (SMILES) | MIC90 [1] | log K [2] | IC50 (THP-1) | MIC90 [3] | MIC90 [4] | Activity [5]
COc1ccc(NC(=O)c2ccc3cccc(O)c3n2)cc1 | 425 µM (≈ 125 µg/mL) | 0.7129 | > 30 µM | 849 µM (≈ 250 µg/mL) | 849 µM (≈ 250 µg/mL) | –
O=C(Nc1cccc(Cl)c1)c1ccc2cccc(O)c2n1 | 50 µM (≈ 14.9 µg/mL) | 1.1718 | > 30 µM | 50 µM (≈ 14.9 µg/mL) | 50 µM (≈ 14.9 µg/mL) | –
Cc1cccc(NC(=O)c2ccc3cccc(O)c3n2)c1 | 29 µM (≈ 8.07 µg/mL) | 0.9686 | > 30 µM | 29 µM (≈ 8.07 µg/mL) | 29 µM (≈ 8.07 µg/mL) | 66.4%
O=C(Nc1cccc([N+](=O)[O-])c1)c1ccc2cccc(O)c2n1 | 808 µM (≈ 250 µg/mL) | 0.9845 | > 30 µM | 26 µM (≈ 8.04 µg/mL) | 808 µM (≈ 250 µg/mL) | 7%
COc1ccccc1NC(=O)c1ccc2cccc(O)c2n1 | 51 µM (≈ 15 µg/mL) | 0.7935 | > 30 µM | 27 µM (≈ 7.95 µg/mL) | 51 µM (≈ 15 µg/mL) | –
O=C(Nc1cccc(Br)c1)c1ccc2cccc(O)c2n1 | 44 µM (≈ 15.1 µg/mL) | 1.2357 | > 30 µM | 44 µM (≈ 15.1 µg/mL) | 44 µM (≈ 15.1 µg/mL) | –
O=C(Nc1ccccc1C(F)(F)F)c1ccc2cccc(O)c2n1 | 752 µM (≈ 250 µg/mL) | 0.9147 | > 30 µM | 24 µM (≈ 7.97 µg/mL) | 24 µM (≈ 7.97 µg/mL) | 53.4%
CO[C@H]1/C=C/O[C@@]2(C)Oc3c(C)c(O)c4c(O)c(c(/C=N/N5CCN(C)CC5)c(O)c4c3C2=O)NC(=O)/C(C)=C\C=C\[C@H](C)[C@H](O)[C@@H](C)[C@@H](O)[C@@H](C)[C@H](OC(C)=O)[C@@H]1C [RIFAMPIN] | 10 µM (≈ 8.23 µg/mL) | – | – | 10 µM (≈ 8.23 µg/mL) | 109 µM (≈ 89.7 µg/mL) | –
O=C(Nc1ccc(Br)cc1)c1ccc2cccc(O)c2n1 | 44 µM (≈ 15.1 µg/mL) | 1.2347 | > 30 µM | 729 µM (≈ 250 µg/mL) | 729 µM (≈ 250 µg/mL) | –
O=C(Nc1ccccc1)c1ccc2cccc(O)c2n1 | 30 µM (≈ 7.93 µg/mL) | 0.76 | > 30 µM | 30 µM (≈ 7.93 µg/mL) | 30 µM (≈ 7.93 µg/mL) | –
Cc1ccc(NC(=O)c2ccc3cccc(O)c3n2)cc1 | 54 µM (≈ 15 µg/mL) | 0.9521 | > 30 µM | 29 µM (≈ 8.07 µg/mL) | 29 µM (≈ 8.07 µg/mL) | –
O=C(Nc1ccccc1Cl)c1ccc2cccc(O)c2n1 | 837 µM (≈ 250 µg/mL) | 0.9566 | > 30 µM | 27 µM (≈ 8.07 µg/mL) | 27 µM (≈ 8.07 µg/mL) | 21.4%
O=C(Nc1ccccc1Br)c1ccc2cccc(O)c2n1 | 729 µM (≈ 250 µg/mL) | 1.0536 | > 30 µM | 23 µM (≈ 7.89 µg/mL) | 23 µM (≈ 7.89 µg/mL) | 26.9%
Cc1ccccc1NC(=O)c1ccc2cccc(O)c2n1 | 54 µM (≈ 15 µg/mL) | 0.6944 | > 30 µM | 29 µM (≈ 8.07 µg/mL) | 29 µM (≈ 8.07 µg/mL) | –
COc1cccc(NC(=O)c2ccc3cccc(O)c3n2)c1 | 27 µM (≈ 7.95 µg/mL) | 0.8164 | > 30 µM | 27 µM (≈ 7.95 µg/mL) | 27 µM (≈ 7.95 µg/mL) | 30.9%
O=C(Nc1ccc([N+](=O)[O-])cc1)c1ccc2cccc(O)c2n1 | 808 µM (≈ 250 µg/mL) | 1.0495 | > 30 µM | 26 µM (≈ 8.04 µg/mL) | 404 µM (≈ 125 µg/mL) | 17.3%
O=C(Nc1ccc(C(F)(F)F)cc1)c1ccc2cccc(O)c2n1 | 24 µM (≈ 7.97 µg/mL) | 1.3653 | > 30 µM | 24 µM (≈ 7.97 µg/mL) | 24 µM (≈ 7.97 µg/mL) | 33.1%
O=C(Nc1ccc(Cl)cc1)c1ccc2cccc(O)c2n1 | 50 µM (≈ 14.9 µg/mL) | 1.1543 | > 30 µM | 837 µM (≈ 250 µg/mL) | 837 µM (≈ 250 µg/mL) | –
O=C(Nc1cccc(F)c1)c1ccc2cccc(O)c2n1 | 53 µM (≈ 15 µg/mL) | 0.942 | > 30 µM | 53 µM (≈ 15 µg/mL) | 53 µM (≈ 15 µg/mL) | –
O=C(Nc1ccccc1F)c1ccc2cccc(O)c2n1 | 53 µM (≈ 15 µg/mL) | 0.6806 | > 30 µM | 28 µM (≈ 7.9 µg/mL) | 28 µM (≈ 7.9 µg/mL) | 26.9%
O=C(Nc1cccc(C(F)(F)F)c1)c1ccc2cccc(O)c2n1 | 24 µM (≈ 7.97 µg/mL) | 1.3206 | > 30 µM | 24 µM (≈ 7.97 µg/mL) | 24 µM (≈ 7.97 µg/mL) | 18.8%
O=C(Nc1ccccc1[N+](=O)[O-])c1ccc2cccc(O)c2n1 | 808 µM (≈ 250 µg/mL) | 1.1277 | > 30 µM | 97 µM (≈ 30 µg/mL) | 97 µM (≈ 30 µg/mL) | –
O=C(Nc1ccc(F)cc1)c1ccc2cccc(O)c2n1 | 53 µM (≈ 15 µg/mL) | 0.8598 | > 30 µM | 53 µM (≈ 15 µg/mL) | 53 µM (≈ 15 µg/mL) | –
